Laboratory results reported in PubChem BioAssay (NCI).
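GI50 is the concentration that inhibits growth by half. TGI: concentration producing complete growth inhibition.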

What was measured:
Experiment in all cases: DTP human tumour cell line panel, 384-well format
NCI/ADR-RES ovarian = test system: NCI/ADR-RES ovarian
MDA-MB-231 breast = test system: MDA-MB-231 breast
COLO 205 colon = test system: COLO 205 colon
M14 melanoma = test system: M14 melanoma
NCI-H460 NSCLC = test system: NCI-H460 NSCLC
ACHN renal = test system: ACHN renal
SF-539 CNS = test system: SF-539 CNS
RPMI-8226 leukemia = test system: RPMI-8226 leukemia
UACC-257 melanoma = test system: UACC-257 melanoma
NCI-H522 lung = test system: NCI-H522 lung
OVCAR-5 ovarian = test system: OVCAR-5 ovarian
HL-60(TB) leukemia = test system: HL-60(TB) leukemia
OVCAR-4 ovarian = test system: OVCAR-4 ovarian
NCI-H23 lung = test system: NCI-H23 lung
SW-620 colon = test system: SW-620 colon
SK-MEL-28 melanoma = test system: SK-MEL-28 melanoma
CCRF-CEM leukemia = test system: CCRF-CEM leukemia
OVCAR-8 ovarian = test system: OVCAR-8 ovarian
K-562 leukemia = test system: K-562 leukemia
SNB-19 CNS = test system: SNB-19 CNS
PC-3 prostate = test system: PC-3 prostate
HOP-92 NSCLC = test system: HOP-92 NSCLC
MCF7 breast = test system: MCF7 breast
A498 renal = test system: A498 renal
SF-268 CNS = test system: SF-268 CNS
OVCAR-3 ovarian = test system: OVCAR-3 ovarian
DU-145 prostate = test system: DU-145 prostate
786-0 renal = test system: 786-0 renal
SK-MEL-5 melanoma = test system: SK-MEL-5 melanoma
BT-549 breast = test system: BT-549 breast
HCT-15 colon = test system: HCT-15 colon
HCC-2998 colon = test system: HCC-2998 colon
MDA-MB-468 breast = test system: MDA-MB-468 breast
NCI-H322M lung = test system: NCI-H322M lung
MALME-3M melanoma = test system: MALME-3M melanoma
A549 NSCLC = test system: A549 NSCLC
RXF 393 renal = test system: RXF 393 renal
U251 glioblastoma = test system: U251 glioblastoma
KM12 colon = test system: KM12 colon
HT29 colon = test system: HT29 colon
IGROV1 ovarian = test system: IGROV1 ovarian
HCT-116 colon = test system: HCT-116 colon
T-47D breast = test system: T-47D breast
UO-31 renal = test system: UO-31 renal
MOLT-4 leukemia = test system: MOLT-4 leukemia
SK-OV-3 ovarian = test system: SK-OV-3 ovarian
SN12C renal = test system: SN12C renal
MDA-MB-435 melanoma = test system: MDA-MB-435 melanoma
UACC-62 melanoma = test system: UACC-62 melanoma
HOP-62 NSCLC = test system: HOP-62 NSCLC
SR leukemia = test system: SR leukemia
SK-MEL-2 melanoma = test system: SK-MEL-2 melanoma
TK-10 renal = test system: TK-10 renal
CAKI-1 renal = test system: CAKI-1 renal
NCI-H226 lung = test system: NCI-H226 lung
SF-295 CNS = test system: SF-295 CNS
LOX IMVI melanoma = test system: LOX IMVI melanoma

C[C@H](CCOc1cccc(CC(=O)O)c1)N(Cc1cccc(C(F)(F)F)c1Cl)CC(c1ccccc1)c1ccccc1
GI50 (NCI/ADR-RES ovarian): 3.54 µM | TGI (NCI/ADR-RES ovarian): 12.5 µM | GI50 (MDA-MB-231 breast): 10.2 µM | TGI (MDA-MB-231 breast): 21.9 µM | GI50 (COLO 205 colon): 8.19 µM | TGI (COLO 205 colon): 20.5 µM | GI50 (M14 melanoma): 5.84 µM | TGI (M14 melanoma): 18.2 µM | GI50 (NCI-H460 NSCLC): 3.5 µM | TGI (NCI-H460 NSCLC): 11.3 µM | GI50 (ACHN renal): 5 µM | TGI (ACHN renal): 16.1 µM | GI50 (SF-539 CNS): 3.92 µM | TGI (SF-539 CNS): 14.2 µM | GI50 (RPMI-8226 leukemia): 1.5 µM | TGI (RPMI-8226 leukemia): 2.93 µM | GI50 (UACC-257 melanoma): 3.35 µM | TGI (UACC-257 melanoma): 13 µM | GI50 (NCI-H522 lung): 2.55 µM | TGI (NCI-H522 lung): 9.37 µM | GI50 (OVCAR-5 ovarian): 11.2 µM | TGI (OVCAR-5 ovarian): 23.3 µM | GI50 (HL-60(TB) leukemia): 2.26 µM | TGI (HL-60(TB) leukemia): 4.22 µM | GI50 (OVCAR-4 ovarian): 5.04 µM | TGI (OVCAR-4 ovarian): 18.2 µM | GI50 (NCI-H23 lung): 2.28 µM | TGI (NCI-H23 lung): 5.31 µM | GI50 (SW-620 colon): 4.66 µM | TGI (SW-620 colon): 15.7 µM | GI50 (SK-MEL-28 melanoma): 15.8 µM | TGI (SK-MEL-28 melanoma): 29.3 µM | GI50 (CCRF-CEM leukemia): 1.72 µM | TGI (CCRF-CEM leukemia): 4.13 µM | GI50 (OVCAR-8 ovarian): 4.56 µM | TGI (OVCAR-8 ovarian): 15.4 µM | GI50 (K-562 leukemia): 3.55 µM | TGI (K-562 leukemia): 13.4 µM | GI50 (SNB-19 CNS): 4.66 µM | TGI (SNB-19 CNS): 14 µM | GI50 (PC-3 prostate): 4.33 µM | TGI (PC-3 prostate): 13.1 µM | GI50 (HOP-92 NSCLC): 2.97 µM | TGI (HOP-92 NSCLC): 8.88 µM | GI50 (MCF7 breast): 3.9 µM | TGI (MCF7 breast): 14 µM | GI50 (A498 renal): 4.51 µM | TGI (A498 renal): 15.6 µM | GI50 (SF-268 CNS): 3.04 µM | TGI (SF-268 CNS): 11 µM | GI50 (OVCAR-3 ovarian): 2.79 µM | TGI (OVCAR-3 ovarian): 7.28 µM | GI50 (DU-145 prostate): 5.06 µM | TGI (DU-145 prostate): 16.5 µM | GI50 ([…]-0 renal): 4.3 µM | TGI (786-0 renal): 15.4 µM | GI50 (SK-MEL-5 melanoma): 3.29 µM | TGI (SK-MEL-5 melanoma): 11.1 µM | GI50 (BT-549 breast): 3.27 µM | TGI (BT-549 breast): 12.7 µM | GI50 (HCT-15 colon): 3.83 µM | TGI (HCT-15 colon): 13 µM | GI50 (HCC-2998 colon): 2.58 µM | TGI (HCC-2998 colon): 7.25 µM | GI50 (MDA-MB-468 breast): 3.06 µM | TGI (MDA-MB-468 breast): 7.76 µM | GI50 (NCI-H322M lung): 4.7 µM | TGI (NCI-H322M lung): 17.3 µM | GI50 (MALME-3M melanoma): 15 µM | TGI (MALME-3M melanoma): 28.3 µM | GI50 (A549 NSCLC): 3.46 µM | TGI (A549 NSCLC): 12 µM | GI50 (RXF 393 renal): 2.1 µM | TGI (RXF 393 renal): 5.24 µM | GI50 (U251 glioblastoma): 2.69 µM | TGI (U251 glioblastoma): 7.64 µM | GI50 (KM12 colon): 3.76 µM | TGI (KM12 colon): 12.5 µM | GI50 (HT29 colon): 4.23 µM | TGI (HT29 colon): 16.2 µM | GI50 (IGROV1 ovarian): 5.92 µM | TGI (IGROV1 ovarian): 18.5 µM | GI50 (HCT-116 colon): 3 µM | TGI (HCT-116 colon): 11.2 µM | GI50 (T-47D breast): 1.84 µM | TGI (T-47D breast): 10 µM | GI50 (UO-31 renal): 5.07 µM | TGI (UO-31 renal): 16.7 µM | GI50 (MOLT-4 leukemia): 1.61 µM | TGI (MOLT-4 leukemia): 3.15 µM | GI50 (SK-OV-3 ovarian): 9.13 µM | TGI (SK-OV-3 ovarian): 21.2 µM | GI50 (SN12C renal): 5.1 µM | TGI (SN12C renal): 16.2 µM | GI50 (MDA-MB-435 melanoma): 10.9 µM | TGI (MDA-MB-435 melanoma): 23 µM | GI50 (UACC-62 melanoma): 9.52 µM | TGI (UACC-62 melanoma): 21.4 µM | GI50 (HOP-62 NSCLC): 3.86 µM | TGI (HOP-62 NSCLC): 12.9 µM | GI50 (SR leukemia): 1.73 µM | TGI (SR leukemia): 3.16 µM | GI50 (SK-MEL-2 melanoma): 14 µM | TGI (SK-MEL-2 melanoma): 27 µM | GI50 (TK-10 renal): 6.54 µM | TGI (TK-10 renal): 18.8 µM | GI50 (CAKI-1 renal): 6.37 µM | TGI (CAKI-1 renal): 18.5 µM | GI50 (NCI-H226 lung): 4.17 µM | TGI (NCI-H226 lung): 15.7 µM | GI50 (SF-295 CNS): 2.64 µM | TGI (SF-295 CNS): 7.41 µM | GI50 (LOX IMVI melanoma): 4.34 µM | TGI (LOX IMVI melanoma): 17.5 µM
